Target: T1, Complement component 3a receptor 1, isoform CRA_a (Homo sapiens, UniProt A8K2H7)
T1 sequence (A8K2H7 whole entry): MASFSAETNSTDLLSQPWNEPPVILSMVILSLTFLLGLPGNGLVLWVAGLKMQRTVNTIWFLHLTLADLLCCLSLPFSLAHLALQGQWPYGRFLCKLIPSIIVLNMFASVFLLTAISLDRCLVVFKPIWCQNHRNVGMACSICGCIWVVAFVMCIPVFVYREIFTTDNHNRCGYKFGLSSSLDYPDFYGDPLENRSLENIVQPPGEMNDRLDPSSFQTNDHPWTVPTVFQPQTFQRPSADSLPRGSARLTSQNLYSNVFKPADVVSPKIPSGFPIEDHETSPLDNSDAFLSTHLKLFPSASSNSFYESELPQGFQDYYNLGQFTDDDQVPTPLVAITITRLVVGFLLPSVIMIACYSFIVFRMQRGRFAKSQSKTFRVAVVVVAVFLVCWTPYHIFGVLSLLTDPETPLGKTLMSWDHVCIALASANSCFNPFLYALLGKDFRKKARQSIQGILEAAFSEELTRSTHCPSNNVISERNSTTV
Test: Agonist activity at human C3AR1 expressed in […] by FLIPR assay
Format: functional, cell-based

Compared with `CCCCc1cn(Cc2ccc(-c3ccccc3C(=O)O)cc2)c2cccc(SC)c2c1=O`, `CCCCc1nc2cccc(CCCl)c2n1Cc1ccc(-c2ccccc2C(=O)O)cc1` is 1.7-fold lower in EC50: 530 nM for the first, 310 nM for the second.

`CCCCn1c(Cc2ccccc2)nc2cc(/C(=C/C(=O)O)c3ccccc3)ccc21` and `CCCc1nc(Br)c(S(C)(=O)=O)n1Cc1ccc(-c2ccccc2-c2nn[nH]n2)cc1` are within 1.5-fold of each other in EC50: 2.7 nM for the first, 2 nM for the second.

Source: ChEMBL document CHEMBL1138486, “Sequence-derived three-dimensional pharmacophore models for G-protein-coupled receptors and their application in virtual screening” (J Med Chem, 2009)
